According to the supplement of paper PMC10307832:

Assays:
Test in all cases: relative viability (nuclei count vs DMSO), 5 days (fraction); higher = more cells survive
Ricolinostat + AZD7762 = compound: O=C(CCCCCCNC(=O)c1cnc(N(c2ccccc2)c2ccccc2)nc1)NO [Ricolinostat] + NC(=O)Nc1cc(-c2cccc(F)c2)sc1C(=O)N[C@H]1CCCNC1 [AZD7762] (partner 0.2 µM)
Outline: (§1)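 Cells from lung cancer lines were seeded into 1536-well plates and, one day later, dosed by pin tool. Treatments were either a single drug or a fixed dose of an anchor drug with five library-drug doses (not always all listed) in √10 steps. After 5 days, nuclei were stained in a one-step fixation (final 0.05% Triton X-100, 1% formaldehyde, 1 ug/ml Hoechst) and counted on 4× images, and relative viability is the treated-to-vehicle nuclei ratio, as the median of duplicate plates.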

TGX 221 + Luminespib = compound: CC1=CN2C(=O)C=C(N=C2C(=C1)C(C)NC3=CC=CC=C3)N4CCOCC4 [TGX 221] + CCNC(=O)c1noc(-c2cc(C(C)C)c(O)cc2O)c1-c1ccc(CN2CCOCC2)cc1 [Luminespib] (partner 0.01 µM)
Outline: as §1

TGX 221 + Foretinib = compound: CC1=CN2C(=O)C=C(N=C2C(=C1)C(C)NC3=CC=CC=C3)N4CCOCC4 [TGX 221] + COc1cc2c(Oc3ccc(NC(=O)C4(C(=O)Nc5ccc(F)cc5)CC4)cc3F)ccnc2cc1OCCCN1CCOCC1 [Foretinib] (partner 0.25 µM)
Outline: as §1

[1] = compound: C1=CC=C(C(=C1)C2=CC=C(C=C2)C3=CSC4=C3C(=C(C(=O)N4)C#N)O)O + COc1cc2c(Oc3ccc(NC(=O)C4(C(=O)Nc5ccc(F)cc5)CC4)cc3F)ccnc2cc1OCCCN1CCOCC1 [Foretinib] (partner 0.25 µM)
Outline: as §1

Row | Cell Line | relative viability (Ricolinostat + AZD7762; first compound 0.08 µM) | relative viability (Ricolinostat + AZD7762; first compound 0.253 µM) | relative viability (Ricolinostat + AZD7762; first compound 0.8 µM) | relative viability (Ricolinostat + AZD7762; first compound 2.53 µM) | relative viability (TGX 221 + Luminespib; first compound 0.08 µM) | relative viability (TGX 221 + Luminespib; first compound 0.253 µM) | relative viability (TGX 221 + Luminespib; first compound 0.8 µM) | relative viability (TGX 221 + Luminespib; first compound 2.53 µM) | relative viability (TGX 221 + Luminespib; first compound 8 µM) | relative viability (TGX 221 + Foretinib; first compound 0.08 µM) | relative viability (TGX 221 + Foretinib; first compound 0.253 µM) | relative viability (TGX 221 + Foretinib; first compound 0.8 µM) | relative viability (TGX 221 + Foretinib; first compound 2.53 µM) | relative viability (TGX 221 + Foretinib; first compound 8 µM) | relative viability ([1]; first compound 0.253 µM) | relative viability ([1]; first compound 0.8 µM) | relative viability ([1]; first compound 2.53 µM) | relative viability ([1]; first compound 8 µM) | relative viability ([1]; first compound 0.08 µM)
1 | LK-2 | 0.254 | 0.375 | 0.38 | 0.348 | 0.17 | 0.2 | 0.187 | 0.214 | 0.207 | 1.2 | 1.2 | 1.53 | 1.17 | 0.998 | 1.01 | 1.37 | 1.3 | 1.7 | –
2 | LOU-NH91 | – | 0.788 | 0.796 | 0.739 | 0.332 | 0.358 | 0.323 | 0.317 | 0.31 | 0.766 | 0.922 | 0.945 | 0.907 | 0.781 | 0.96 | 0.92 | 0.914 | 0.868 | 0.942
3 | LU99A | 0.324 | 0.378 | 0.253 | 0.159 | 0.251 | 0.31 | 0.208 | 0.249 | 0.316 | 0.68 | 0.902 | 0.755 | 0.917 | 0.953 | 0.86 | 0.754 | 0.83 | 0.797 | 0.89
4 | LXF-289 | 1.07 | 1.07 | 1.11 | 1.06 | 0.667 | 0.686 | 0.77 | 0.47 | 0.513 | 0.974 | 0.986 | 1 | 0.97 | 0.995 | 0.959 | 0.993 | 1.05 | 1.04 | 0.999
5 | NCI-H23 | 0.332 | 0.281 | 0.223 | 0.154 | 0.196 | 0.225 | 0.217 | 0.21 | 0.208 | 0.84 | 0.861 | 1.03 | 0.87 | 0.65 | 1.04 | 1.19 | 1.05 | 0.896 | 0.906
6 | NCI-H322M | 0.432 | 0.663 | 0.512 | 0.49 | 0.735 | 0.802 | 0.776 | 0.812 | 0.644 | 0.924 | 0.869 | 1 | 0.763 | 0.765 | 1.02 | 0.935 | 1.02 | 0.954 | 1.01
7 | NCI-H358 | – | 0.519 | 0.414 | 0.312 | 0.285 | 0.37 | 0.319 | 0.007 | 0.29 | 0.702 | 0.664 | 0.711 | 0.597 | 0.587 | 0.558 | 0.697 | 0.624 | 0.53 | 0.672
8 | NCI-H441 | 0.982 | 1.06 | 0.924 | 0.801 | 0.554 | 0.307 | 0.364 | 0.312 | 0.278 | 1.11 | 0.849 | 0.919 | 0.897 | 0.96 | 1.15 | 1 | 1.27 | 0.976 | 1.07
9 | NCI-H460 | 0.589 | 0.582 | 0.587 | 0.322 | 0.0366 | 0.029 | 0.0351 | 0.04 | 0.028 | 1.02 | 0.968 | 1.14 | 0.957 | 0.83 | 1.11 | 0.972 | 1 | 0.569 | 1.18
